Each compound was assayed against human LPAR1 (Homo sapiens (Human), UniProt Q92633) (assay: LPAR1 intracellular calcium mobilization assay (antagonist mode, FLIPR)). Conditions: CHO-K1 EDG2 cells expressing human LPAR1, LPA 18:2 at EC80 (100 nM), test compound 0.5 nM to 10 μM.
human LPAR1, sequence (Q92633 whole entry): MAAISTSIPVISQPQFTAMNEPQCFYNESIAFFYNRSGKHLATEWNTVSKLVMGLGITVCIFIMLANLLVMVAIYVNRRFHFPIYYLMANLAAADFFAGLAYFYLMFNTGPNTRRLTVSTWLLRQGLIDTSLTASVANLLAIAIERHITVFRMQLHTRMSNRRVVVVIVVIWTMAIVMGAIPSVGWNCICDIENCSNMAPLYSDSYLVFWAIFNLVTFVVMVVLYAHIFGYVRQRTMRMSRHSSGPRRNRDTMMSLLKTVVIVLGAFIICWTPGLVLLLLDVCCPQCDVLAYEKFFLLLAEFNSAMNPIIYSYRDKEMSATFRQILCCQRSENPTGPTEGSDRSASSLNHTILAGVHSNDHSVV
Assay type: cell-based
C[C@@H](OC(=O)Nc1c(-c2ccc(NC(=O)c3ccnc(F)c3)cn2)nnn1C)c1cc(F)cnc1F [Compound 213, (R)-1-(2,5-difluoropyridin-3-yl)ethyl (4-(5-(2-fluoroisonicotinamido)pyridin-2-yl)-1-methyl-1H-1,2,3-triazol-5-yl)carbamate] was tested, and the EC50 was 175 nM. Work on C[C@@H](OC(=O)Nc1c(-c2ccc(NC(=O)C3(C(F)F)COC3)cn2)nnn1C)c1cc(F)cnc1F [Compound 214, (R)-1-(2,5-difluoropyridin-3-yl)ethyl (4-(5-(3-(difluoromethyl)oxetane-3-carboxamido)pyridin-2-yl)-1-methyl-1H-1,2,3-triazol-5-yl)carbamate] yielded an EC50 of 357 nM. For C[C@@H](OC(=O)Nc1c(-c2ccc(NC(=O)C34CC(S(C)(=O)=O)(C3)C4)cn2)nnn1C)c1cc(F)cnc1F [Compound 215, (R)-1-(2,5-difluoropyridin-3-yl)ethyl (1-methyl-4-(5-(3-(methylsulfonyl)bicyclo[1.1.1]pentane-1-carboxamido)pyridin-2-yl)-1H-1,2,3-triazol-5-yl)carbamate], the EC50 was 2000 nM. C[C@@H](OC(=O)Nc1c(-c2ccc(NC(=O)[C@@H]3C[C@H]3Cl)cn2)nnn1C)c1cc(F)cnc1F [Compound 218, (R)-1-(2,5-difluoropyridin-3-yl)ethyl (4 (5-((1S,2R)-2-chlorocyclopropane-1-carboxamido)pyridin-2-yl)-1-methyl-1H-1,2,3-triazol-5-yl)carbamate] was tested, and the EC50 was 24 nM. Compound C[C@@H](OC(=O)Nc1c(-c2ccc(NC(=O)c3cncc(C(F)F)c3)cn2)nnn1C)c1cc(F)cnc1F [Compound 219, (R)-1-(2,5-difluoropyridin-3-yl)ethyl (4-(5-(5-(difluoromethyl)nicotinamido)pyridin-2-yl)-1-methyl-1H-1,2,3-triazol-5-yl)carbamate] has an EC50 of 37.7 nM. For C[C@@H](OC(=O)Nc1c(-c2ccc(NC(=O)c3ccc(F)nc3)cn2)nnn1C)c1cc(F)cnc1F [Compound 220, (R)-1-(2,5-difluoropyridin-3-yl)ethyl (4-(5-(6-fluoronicotinamido)pyridin-2-yl)-1-methyl-1H-1,2,3-triazol-5-yl)carbamate], the EC50 was 158 nM. In the case of Cc1ccc(C(=O)Nc2ccc(-c3nnn(C)c3NC(=O)O[C@H](C)c3cc(F)cnc3F)nc2)cn1 [Compound 221, (R)-1-(2,5-difluoropyridin-3-yl)ethyl (1-methyl-4-(5-(6-methylnicotinamido)pyridin-2-yl)-1H-1,2,3-triazol-5-yl)carbamate], the EC50 is reported as 374 nM. C[C@@H](OC(=O)Nc1c(-c2ccc(NC(=O)c3ccc(C(F)F)nc3)cn2)nnn1C)c1cc(F)cnc1F [Compound 222, (R)-1-(2,5-difluoropyridin-3-yl)ethyl (4-(5-(6-(difluoromethyl)nicotinamido)pyridin-2-yl)-1-methyl-1H-1,2,3-triazol-5-yl)carbamate] was tested, and the EC50 was 41.7 nM. With COc1cc(C(=O)Nc2ccc(-c3nnn(C)c3NC(=O)O[C@H](C)c3cc(F)cnc3F)nc2)ccn1 [Compound 223, (R)-1-(2,5-difluoropyridin-3-yl)ethyl (4-(5-(2-methoxyisonicotinamido)pyridin-2-yl)-1-methyl-1H-1,2,3-triazol-5-yl)carbamate] the EC50 was 118 nM. C[C@@H](OC(=O)Nc1c(-c2ccc(NC(=O)c3ccnc(C(F)F)c3)cn2)nnn1C)c1cc(F)cnc1F [Compound 224, (R)-1-(2,5-difluoropyridin-3-yl)ethyl (4-(5-(2-(difluoromethyl)isonicotinamido)pyridin-2-yl)-1-methyl-1H-1,2,3-triazol-5-yl)carbamate] showed an EC50 of 40.2 nM. Work on C[C@@H](OC(=O)Nc1c(-c2ccc(NC(=O)C3(C)CC(F)(F)C3)cn2)nnn1C)c1cc(F)cnc1F [Compound 226, (R)-1-(2,5-difluoropyridin-3-yl)ethyl (4-(5-(3,3-difluoro-1-methylcyclobutane-1-carboxamido)pyridin-2-yl)-1-methyl-1H-1,2,3-triazol-5-yl)carbamate] yielded an EC50 of 184 nM. Cc1cnoc1C(=O)Nc1ccc(-c2nnn(C)c2NC(=O)O[C@H](C)c2cc(F)cnc2F)nc1 [Compound 227, (R)-1-(2,5-difluoropyridin-3-yl)ethyl (1-methyl-4-(5-(4-methylisoxazole-5-carboxamido)pyridin-2-yl)-1H-1,2,3-triazol-5-yl)carbamate] gave an EC50 of 206 nM. With C[C@@H](OC(=O)Nc1c(-c2ccc(NC(=O)C3(C)CS(=O)(=O)C3)cn2)nnn1C)c1cc(F)cnc1F [Compound 228, (R)-1-(2,5-difluoropyridin-3-yl)ethyl (1-methyl-4-(5-(3-methyl-1,1-dioxidothietane-3-carboxamido)pyridin-2-yl)-1H-1,2,3-triazol-5-yl)carbamate] the EC50 was 403 nM. In the case of Cc1cc(C(=O)Nc2ccc(-c3nnn(C)c3NC(=O)O[C@H](C)c3cc(F)cnc3F)nc2)cnn1 [Compound 231, (R)-1-(2,5-difluoropyridin-3-yl)ethyl (1-methyl-4-(5-(6-methylpyridazine-4-carboxamido)pyridin-2-yl)-1H-1,2,3-triazol-5-yl)carbamate], the EC50 is reported as 412 nM. Compound C[C@@H](OC(=O)Nc1c(-c2ccc(NC(=O)c3ccnc(N)c3)cn2)nnn1C)c1cc(F)cnc1F [Compound 232, (R)-1-(2,5-difluoropyridin-3-yl)ethyl (4-(5-(2-aminoisonicotinamido)pyridin-2-yl)-1-methyl-1H-1,2,3-triazol-5-yl)carbamate] has an EC50 of 1110 nM. Cc1ncc(C(=O)Nc2ccc(-c3nnn(C)c3NC(=O)O[C@H](C)c3cc(F)cnc3F)nc2)cn1 [Compound 234, (R)-1-(2,5-difluoropyridin-3-yl)ethyl (1-methyl-4-(5-(2-methylpyrimidine-5-carboxamido)pyridin-2-yl)-1H-1,2,3-triazol-5-yl)carbamate] was tested, and the EC50 was 136 nM. Work on C[C@@H](OC(=O)Nc1c(-c2ccc(NC(=O)c3cnc(C#N)nc3)cn2)nnn1C)c1cc(F)cnc1F [Compound 235, (R)-1-(2,5-difluoropyridin-3-yl)ethyl (4-(5-(2-cyanopyrimidine-5-carboxamido)pyridin-2-yl)-1-methyl-1H-1,2,3-triazol-5-yl)carbamate] yielded an EC50 of 26.5 nM. For C[C@@H](OC(=O)Nc1c(-c2ccc(NC(=O)c3ccc(=O)n(C)c3)cn2)nnn1C)c1cc(F)cnc1F [Compound 236, (R)-1-(2,5-difluoropyridin-3-yl)ethyl (1-methyl-4-(5-(1-methyl-6-oxo-1,6-dihydropyridine-3-carboxamido)pyridin-2-yl)-1H-1,2,3-triazol-5-yl)carbamate], the EC50 was 1660 nM. With Cc1nonc1C(=O)Nc1ccc(-c2nnn(C)c2NC(=O)O[C@H](C)c2cc(F)cnc2F)nc1 [Compound 239, (R)-1-(2,5-difluoropyridin-3-yl)ethyl (1-methyl-4-(5-(4-methyl-1,2,5-oxadiazole-3-carboxamido)pyridin-2-yl)-1H-1,2,3-triazol-5-yl)carbamate] the EC50 was 62.3 nM. C[C@@H](OC(=O)Nc1c(-c2ccc(NC(=O)c3cc(F)cnc3F)cn2)nnn1C)c1cc(F)cnc1F [Compound 241, (R)-1-(2,5-difluoropyridin-3-yl)ethyl (4-(5-(2,5-difluoronicotinamido)pyridin-2-yl)-1-methyl-1H-1,2,3-triazol-5-yl)carbamate] showed an EC50 of 111 nM. C[C@@H](OC(=O)Nc1c(-c2ccc(NC(=O)c3ccc(C(F)(F)F)nc3)cn2)nnn1C)c1cc(F)cnc1F [Compound 242, (R)-1-(2,5-difluoropyridin-3-yl)ethyl (1-methyl-4-(5-(6-(trifluoromethyl)nicotinamido)pyridin-2-yl)-1H-1,2,3-triazol-5-yl)carbamate] gave an EC50 of 63.3 nM.

Reference: patent US11912686B2 (Gilead Sciences, Inc., priority 2020, dated 2024)
